Assay results from patent US12649750B2, “Macrocyclic compounds, compositions, and methods of using thereof” (Sionna Therapeutics Inc., priority 2022, dated 2026).

What was measured:
[1] = target: T1, NBD1 (Homo sapiens, UniProt P13569); assay: Aggregation analysis using differential static light scattering (DSLS), thermal stability of NBD1 (ΔTagg); format: binding; settings: ΔTagg versus DMSO control, NBD1 0.2 mg/ml
T1 construct: Purified recombinant NBD1 was produced using previously described methods; made in house
T1 sequence (P13569 423-646 limits assumed): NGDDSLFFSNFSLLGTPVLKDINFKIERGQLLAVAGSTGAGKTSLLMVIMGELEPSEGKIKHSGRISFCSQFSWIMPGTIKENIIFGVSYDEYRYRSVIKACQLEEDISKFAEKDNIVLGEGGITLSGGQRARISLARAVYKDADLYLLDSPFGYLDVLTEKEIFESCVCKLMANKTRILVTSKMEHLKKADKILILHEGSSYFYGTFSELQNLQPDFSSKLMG
Method in brief: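 Stabilisation is measured as the shift in aggregation onset of recombinant NBD1 (0.2 mg/ml, 2 mM ATP, 5 mM MgCl2, pH7.6) exposed to compound. Images are taken every 0.5° C. while heating at 1° C. per minute, and the inflection-point Tagg is corrected by the DMSO mean.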

[2] = target: T2, CFTR (Homo sapiens, UniProt P13569, DEL508-508); assay: TECC24 AUC fold over DMSO @10 μM, CFTR-mediated transepithelial chloride transport in CF-HBE cells; format: cell-based; settings: test agent AUC divided by DMSO vehicle AUC, primary CF-HBE cells, ΔF508 homozygous donor, 48 hours incubation
T2 construct: Primary human bronchial epithelial cells from a ΔF508 homozygous CF donor; host or cells: primary human bronchial epithelial cells (CF-HBE), ΔF508 homozygous donor
T2 sequence (P13569 with tags, fused parts or gaps DEL508-508): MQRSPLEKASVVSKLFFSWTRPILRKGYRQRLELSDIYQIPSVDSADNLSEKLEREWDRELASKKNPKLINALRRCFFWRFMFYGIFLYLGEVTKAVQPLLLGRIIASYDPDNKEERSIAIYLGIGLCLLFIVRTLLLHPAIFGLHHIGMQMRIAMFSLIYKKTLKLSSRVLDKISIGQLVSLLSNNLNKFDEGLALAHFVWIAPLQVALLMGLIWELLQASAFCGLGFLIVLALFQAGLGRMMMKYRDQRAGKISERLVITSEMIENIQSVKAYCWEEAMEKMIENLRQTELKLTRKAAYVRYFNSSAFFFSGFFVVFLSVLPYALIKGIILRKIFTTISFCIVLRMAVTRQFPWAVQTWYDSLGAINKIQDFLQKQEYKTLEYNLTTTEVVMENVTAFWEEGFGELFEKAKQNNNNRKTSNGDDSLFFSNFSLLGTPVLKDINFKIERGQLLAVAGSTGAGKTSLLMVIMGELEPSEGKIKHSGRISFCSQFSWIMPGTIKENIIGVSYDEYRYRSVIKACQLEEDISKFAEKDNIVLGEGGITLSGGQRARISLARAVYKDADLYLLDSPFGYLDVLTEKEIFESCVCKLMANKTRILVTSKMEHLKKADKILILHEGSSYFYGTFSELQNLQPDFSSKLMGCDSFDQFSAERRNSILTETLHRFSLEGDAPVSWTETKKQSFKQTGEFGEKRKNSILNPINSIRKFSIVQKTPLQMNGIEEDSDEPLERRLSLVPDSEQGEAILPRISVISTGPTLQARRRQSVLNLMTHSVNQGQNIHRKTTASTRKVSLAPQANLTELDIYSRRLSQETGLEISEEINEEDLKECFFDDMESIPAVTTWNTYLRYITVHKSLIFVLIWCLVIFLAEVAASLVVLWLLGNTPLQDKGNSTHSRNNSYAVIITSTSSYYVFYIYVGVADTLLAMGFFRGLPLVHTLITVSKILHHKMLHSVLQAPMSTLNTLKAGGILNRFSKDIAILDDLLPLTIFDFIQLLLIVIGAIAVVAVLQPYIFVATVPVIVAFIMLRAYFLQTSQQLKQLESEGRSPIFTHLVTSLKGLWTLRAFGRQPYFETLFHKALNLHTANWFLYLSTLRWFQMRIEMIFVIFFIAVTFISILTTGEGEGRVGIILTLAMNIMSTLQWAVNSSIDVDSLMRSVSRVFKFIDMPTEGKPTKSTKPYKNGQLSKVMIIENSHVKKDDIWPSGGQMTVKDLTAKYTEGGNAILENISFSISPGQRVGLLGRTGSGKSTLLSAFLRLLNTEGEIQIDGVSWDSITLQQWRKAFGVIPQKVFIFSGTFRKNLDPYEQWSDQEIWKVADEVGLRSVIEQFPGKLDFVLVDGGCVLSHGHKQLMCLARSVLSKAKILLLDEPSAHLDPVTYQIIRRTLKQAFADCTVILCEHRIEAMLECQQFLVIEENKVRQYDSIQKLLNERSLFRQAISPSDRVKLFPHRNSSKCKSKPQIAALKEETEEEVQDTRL
Method in brief: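 ΔF508-homozygous primary bronchial epithelial cells incubated 48 h at 36.5° C with compound (10 μM) in IL-13-containing medium, then TECC24 current-clamp recording in pH 7.4 Hepes saline with benzamil 10 μM, forskolin 10 μM, then CFTR inhibitor-172 20 μM. Equivalent Cl− current AUC between forskolin and inhibitor, expressed as fold over DMSO.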

SMILES	DSLS 3D (100 μM ΔT) [1]	TECC (AUC, 10 μM) [2]
Cn1nc2nc1-c1cc(ccc1F)Oc1c(F)cc3[nH]ccc3c1CCS(=O)(=O)CC(C)(C)CCCC2(C)c1cccc(CC2CCOC2=O)c1 (centres unmarked) [Compound 173, 3-[[3-(22,28-Difluoro-3,6,10,10-tetramethyl-12,12-dioxo-24-oxa-12λ6-thia-3,4,19,30-tetrazapentacyclo[23.3.1.12,5.015,23.016,20]triaconta-1(29),2(30),4,15,17,20,22,25,27-nonaen-6-yl)phenyl]methyl]tetrahydrofuran-2-one]	B (a value above 5 °C and less than or equal to 10 °C is marked “B”)	C (a value between 20 and 80 is marked “C”)
CCOC(=O)CCc1cccc(C2CCS(=O)(=O)CCS(=O)(=O)CCc3c(c(F)cc4[nH]ccc34)Oc3ccc(F)c(c3)-c3ccn2n3)c1 (centres unmarked) [Compound 92, Ethyl 3-[3-(22,28-difluoro-9,9,12,12-tetraoxo-24-oxa-9lambda6,12lambda6-dithia-5,19,30-triazapentacyclo[23.3.1.12,5.015,23.016,20]triaconta-1(29),2(30),3,15,17,20,22,25,27-nonaen-6-yl)phenyl]propanoate]	A (an ΔTagg value less than or equal to 5 °C is marked “A”)	A (a TECC value less than 12 is marked “A”)
Cn1nc2nc1-c1cc(ccn1)Oc1c(F)c(F)c3[nH]ccc3c1CCS(=O)(=O)CC(C)(C)CCC[C@]2(C)c1cccc(CCO)c1 [Compound 258, 2-[3-[(6R)-21,22-Difluoro-3,6,10,10-tetramethyl-12,12-dioxo-24-oxa-12λ6-thia-3,4,19,28,30-pentazapentacyclo[23.3.1.12,5.015,23.016,20]triaconta-1(29),2(30),4,15,17,20,22,25,27-nonaen-6-yl]phenyl]ethanol]	C (a value greater than 10 °C and less than or equal to 25 °C is marked “C”)	C (a value between 20 and 80 is marked “C”)
[2H]C([2H])([2H])C1(c2cccc(CC(C)C(=O)O)c2)CCCC(C)(C)CS(=O)(=O)CCc2c(c(F)cc3[nH]ccc23)Oc2ccc(F)c(c2)-c2nc1nn2C (single isomer, unassigned) [Compound 10B, 3-[3-[22,28-difluoro-3,10,10-trimethyl-12,12-dioxo-6-(trideuteriomethyl)-24-oxa-12lambda6-thia-3,4,19,30-tetrazapentacyclo[23.3.1.12,5.015,23.016,20]triaconta-1(29),2(30),4,15,17,20,22,25,27-nonaen-6-yl]phenyl]-2-methyl-propanoic Acid]	B (a value above 5 °C and less than or equal to 10 °C is marked “B”)	A (a TECC value less than 12 is marked “A”)
C[C@@H](Cc1cccc([C@@]2(C)CCCC(C)(C)CS(=O)(=O)CCc3c(c(F)cc4[nH]ccc34)[S+]([O-])c3ccnc(c3)-c3nc2cs3)c1)C(=O)O (single isomer, unassigned) [Compound 239A]	A (an ΔTagg value less than or equal to 5 °C is marked “A”)	B (a value between 12-20 is marked “B”)
C[C@H](Cc1cccc([C@@]2(C)CCCC(C)(C)CS(=O)(=O)CCc3c(c(F)cc4[nH]ccc34)Cc3ccnc(c3)-c3nc2nn3C)c1)C(=O)O [Compound 234, (2R)-3-[3-[(6R)-22-fluoro-3,6,10,10-tetramethyl-12,12-dioxo-12λ6-thia-3,4,19,28,30-pentazapentacyclo[23.3.1.12,5.015,23.016,20]triaconta-1(29),2(30),4,15,17,20,22,25,27-nonaen-6-yl]phenyl]-2-methyl-propanoic Acid]	C (a value greater than 10 °C and less than or equal to 25 °C is marked “C”)	B (a value between 12-20 is marked “B”)
C[C@@H](Cc1cccc([C@@]2(C)CCCC(C)(C)CS(=O)(=O)CCc3c(c(F)cc4[nH]ccc34)[S+]([O-])c3ccnc(c3)-c3nc2nn3C)c1F)C(=O)O (stereo partly drawn) [Compound 283, (2S)-3-[2-fluoro-3-[(6R)-22-fluoro-3,6,10,10-tetramethyl-12,12,24-trioxo-12λ6,24λ4-dithia-3,4,19,28,30-pentazapentacyclo[23.3.1.12,5.015,23.016,20]triaconta-1(29),2(30),4,15,17,20,22,25,27-nonaen-6-yl]phenyl]-2-methyl-propanoic Acid]	C (a value greater than 10 °C and less than or equal to 25 °C is marked “C”)	C (a value between 20 and 80 is marked “C”)
COCCOCCOCCOC(=O)[C@@H](C)Cc1cccc(C2(C)CCCC(C)(C)CS(=O)(=O)CCc3c(c(F)cc4[nH]ccc34)Oc3ccc(F)c(c3)-c3nc2nn3C)c1 (single isomer, unassigned) [Compound 165]	B (a value above 5 °C and less than or equal to 10 °C is marked “B”)	C (a value between 20 and 80 is marked “C”)
CC1(C)CCCC(c2cccc(CCC(=O)O)c2)n2ncc(Cl)c2-c2cc(ccc2F)Oc2c(F)cc3[nH]ccc3c2CCS(=O)(=O)C1 (centres unmarked) [Compound 71, 3-[3-(3-Chloro-23,29-difluoro-11,11-dimethyl-13,13-dioxo-25-oxa-13λ6-thia-5,6,20-triazapentacyclo[24.3.1.02,6.016,24.017,21]triaconta-1(30),2,4,16,18,21,23,26,28-nonaen-7-yl)phenyl]propanoic Acid]	C (a value greater than 10 °C and less than or equal to 25 °C is marked “C”)	A (a TECC value less than 12 is marked “A”)
CC(C)ONC(=O)[C@@H](C)Cc1cccc(C2(C)CCCC(C)(C)CS(=O)(=O)CCc3c(c(F)cc4[nH]ccc34)Oc3ccc(F)c(c3)-c3nc2nn3C)c1 (single isomer, unassigned) [Compound 189]	B (a value above 5 °C and less than or equal to 10 °C is marked “B”)	B (a value between 12-20 is marked “B”)
CC(CC(=O)O)c1cccc(C2(C)CCOC(C)(C)CS(=O)(=O)CCc3c(c(F)cc4[nH]ccc34)Oc3ccc(F)c(c3)-c3nc2nn3C)c1 (single isomer, unassigned) [Compound 72A, 3-[3-(22,28-difluoro-3,6,10,10-tetramethyl-12,12-dioxo-9,24-dioxa-12lambda6-thia-3,4,19,30-tetrazapentacyclo-[23.3.1.12,5.015,23.016,20]triaconta-1(29),2(30),4,15,17,20,22,25,27-nonaen-6-yl)phenyl]-butanoic Acid]	C (a value greater than 10 °C and less than or equal to 25 °C is marked “C”)	A (a TECC value less than 12 is marked “A”)
[2H]C([2H])([2H])C1(c2cccc(CC(C)C(=O)O)c2)CCC(C)(C)CCS(=O)(=O)CCc2c(c(F)cc3[nH]ccc23)Oc2ccc(F)c(c2)-c2nc1nn2C (single isomer, unassigned) [Compound 119B, 3-[3-[22,28-difluoro-3,9,9-trimethyl-12,12-dioxo-6-(trideuteriomethyl)-24-oxa-12lambda6-thia-3,4,19,30-tetrazapentacyclo[23.3.1.12,5.015,23.016,20]triaconta-1(29),2(30),4,15,17,20,22,25,27-nonaen-6-yl]phenyl]-2-methyl-propanoic acid]	B (a value above 5 °C and less than or equal to 10 °C is marked “B”)	A (a TECC value less than 12 is marked “A”)
C[C@H](Cc1cccc(C2(C)CCCC(C)(C)CS(=O)(=O)CCc3c(c(F)cc4[nH]ccc34)Oc3ccc(F)c(c3)-c3nc2nn3C)c1)C(=O)O (single isomer, unassigned) [Compound 6B]	A (an ΔTagg value less than or equal to 5 °C is marked “A”)	C (a value between 20 and 80 is marked “C”)
CC(Oc1cccc(C2(C)CCCC(C)(C)CS(=O)(=O)CCc3c(c(F)cc4[nH]ccc34)Oc3ccc(F)c(c3)-c3nc2nn3C)c1)C(=O)O (centres unmarked) [Compound 19B, 2-[3-[22,28-difluoro-3,6,10,10-tetramethyl-12,12-dioxo-24-oxa-12 6-thia-3,4,19,30-tetrazapentacyclo[23.3.1.12,5.015,23.016,20]triaconta-1(29),2(30),4,15,17,20,22,25,27-nonaen-6-yl]phenoxy]propanoic Acid]	A (an ΔTagg value less than or equal to 5 °C is marked “A”)	A (a TECC value less than 12 is marked “A”)
[2H]C([2H])([2H])C1(c2cccc(/C=C(\C)C(=O)O)c2)CCCC(C)(C)CS(=O)(=O)CCc2c(c(F)cc3[nH]ccc23)Oc2ccc(F)c(c2)-c2nc1nn2C (single isomer, unassigned) [Compound 16A, (E)-3-[3-[22,28-difluoro-3,10,10-trimethyl-12,12-dioxo-6-(trideuteriomethyl)-24-oxa-12lambda6-thia-3,4,19,30-tetrazapentacyclo[23.3.1.12,5.015,23.016,20]triaconta-1(29),2(30),4,15,17,20,22,25,27-nonaen-6-yl]phenyl]-2-methyl-prop-2-enoic acid]	A (an ΔTagg value less than or equal to 5 °C is marked “A”)	A (a TECC value less than 12 is marked “A”)
C[C@@H](Cc1cccc([C@@]2(C)CCCC(C)(C)CS(=O)(=O)CCc3c(c(F)cc4[nH]ccc34)[S+]([O-])c3cccc(c3)-c3nc2nn3C)c1)C(=O)O (single isomer, unassigned) [Compound 211A]	C (a value greater than 10 °C and less than or equal to 25 °C is marked “C”)	B (a value between 12-20 is marked “B”)
